{"source": "patent US10301308B2", "about": "“Azetidine derivatives for tau imaging” (Eli Lilly and Company, priority 2015, dated 2019)", "target": "PHF (tau from Alzheimer's disease donors) (Homo sapiens, UniProt P10636)", "sequence (P10636 623-708 limits assumed)": "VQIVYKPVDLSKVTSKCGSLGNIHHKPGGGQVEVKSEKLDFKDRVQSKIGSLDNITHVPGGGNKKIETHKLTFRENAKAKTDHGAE", "assay": "Saturation binding of radiolabeled compound to PHF (Kd determination)", "conditions": "tau obtained from donors with Alzheimer's disease", "description": "Purified, soluble PHF is isolated from AD brain tissue using a protocol modified from the procedure described by Jicha, et al. (G. A. Jicha, A. O'Donnell, C. Weaver (1999) “Hierarchical phosphorylation of recombinant tau by the paired-helical filament-associated protein kinase is dependent on cyclic AMP-dependent protein kinase” J Neurochem. 72(1):214). Briefly, AD cortex is homogenized using a handheld Kinematica Polytron, followed by high pressure batch—gas expansion using a Parr Cell disruption bomb. Crude homogenate is centrifuged at 28 kg to pellet cell debris. […]\nThe dissociation constant [Kd] for the radiolabeled compound 3-(3-[18F]-fluoroazetidin-1-yl)-8-methylbenzo[4,5]imidazol[1,2-a]pyridine is determined by saturation binding, in which the total and nonspecific binding of the radioligand are measured at various radioligand concentrations. […] After incubation for 1.5 h at 37° C., the bound radioactivity is harvested by vacuum filtration onto Millipore MultiScreenHTS 96-well glass fiber FB filter plates, using a Millipore MultiScreenHTS Vacuum Manifold, followed by five washes with PBS. Filters containing bound 3-(3-[18F]-fluoroazetidin-1-yl)-8-methylbenzo[4,5]imidazo[1,2-a]pyridine are assayed for radioactivity in a Wizard 2480 automatic gamma-counter [Perkin Elmer]. […]", "data": [{"smiles": "Cc1ccc2nc3cc(N4CC([18F])C4)ccn3c2c1", "note": "[Compound 8, 3-(3-[18F]-fluoroazetidin-1-yl)-8-methylbenzo[4,5]imidazo[1,2-a]pyridine]", "values": [{"measurement": "Kd", "value": "0.85 ± 0.02", "unit": "nM"}]}]}
